Test results as given in paper PMC4511477 (Biochemistry, 2015).

T1: semisynthetic GltPh (Pyrococcus horikoshii, UniProt O59010, M385C)
T1 sequence (O59010 1-417 M385C limits assumed): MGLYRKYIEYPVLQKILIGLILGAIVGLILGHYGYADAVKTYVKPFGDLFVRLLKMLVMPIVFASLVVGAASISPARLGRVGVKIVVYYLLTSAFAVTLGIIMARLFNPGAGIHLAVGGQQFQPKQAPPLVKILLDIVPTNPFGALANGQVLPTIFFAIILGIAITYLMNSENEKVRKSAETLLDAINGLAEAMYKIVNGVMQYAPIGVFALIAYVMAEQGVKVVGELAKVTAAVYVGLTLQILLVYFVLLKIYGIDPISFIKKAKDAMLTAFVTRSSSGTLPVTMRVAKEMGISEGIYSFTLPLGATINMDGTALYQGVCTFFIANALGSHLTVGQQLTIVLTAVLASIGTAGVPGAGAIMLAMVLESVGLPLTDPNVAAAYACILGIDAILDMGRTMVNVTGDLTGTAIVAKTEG

T2: GltPh (Pyrococcus horikoshii, UniProt O59010)
T2 sequence (O59010 1-417 limits assumed): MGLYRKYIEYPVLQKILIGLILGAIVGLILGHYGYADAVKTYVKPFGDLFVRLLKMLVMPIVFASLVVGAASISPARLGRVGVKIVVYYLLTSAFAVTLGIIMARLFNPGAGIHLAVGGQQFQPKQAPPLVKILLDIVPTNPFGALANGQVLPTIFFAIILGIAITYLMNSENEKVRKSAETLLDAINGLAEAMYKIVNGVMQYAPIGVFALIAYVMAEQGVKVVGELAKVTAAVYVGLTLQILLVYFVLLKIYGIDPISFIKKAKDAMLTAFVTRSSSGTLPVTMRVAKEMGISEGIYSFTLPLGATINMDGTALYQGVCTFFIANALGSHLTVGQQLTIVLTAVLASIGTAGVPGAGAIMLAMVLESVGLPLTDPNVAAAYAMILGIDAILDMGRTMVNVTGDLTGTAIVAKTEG


How the values were obtained:
semisynthetic GltPh = target: T1, semisynthetic GltPh; assay: […]-Asp uptake into proteoliposomes; type: biochemical; settings: read-out: % inhibition at 10 μM
GltPh = target: T2, GltPh; assay: […]-Asp uptake into proteoliposomes; type: biochemical; settings: read-out: % inhibition at 10 μM
cross-linking = target: the molecule itself; assay: cross-linking

| Molecule | inhibition at 10 µM (semisynthetic GltPh) | inhibition at 10 µM (GltPh) | stoichiometry N (cross-linking) |
| --- | --- | --- | --- |
| NC(C(=O)O)C(OCc1ccccc1)C(=O)O (racemic) [TBOA] | 42 ± 4% | 31 ± 10% |  |
| semisynthetic GltPh transporter (wild type sequence, M385C at the ligation site) (natural protein, Pyrococcus horikoshii) MGLYRKYIEYPVLQKILIGLILGAIVGLILGHYGYADAVKTYVKPFGDLFVRLLKMLVMPIVFASLVVGAASISPARLGRVGVKIVVYYLLTSAFAVTLGIIMARLFNPGAGIHLAVGGQQFQPKQAPPLVKILLDIVPTNPFGALANGQVLPTIFFAIILGIAITYLMNSENEKVRKSAETLLDAINGLAEAMYKIVNGVMQYAPIGVFALIAYVMAEQGVKVVGELAKVTAAVYVGLTLQILLVYFVLLKIYGIDPISFIKKAKDAMLTAFVTRSSSGTLPVTMRVAKEMGISEGIYSFTLPLGATINMDGTALYQGVCTFFIANALGSHLTVGQQLTIVLTAVLASIGTAGVPGAGAIMLAMVLESVGLPLTDPNVAAAYACILGIDAILDMGRTMVNVTGDLTGTAIVAKTEGTGSG |  |  | 3 |
